# Experimental data as given in PubChem BioAssay (NCI).
#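 Following 48 hours of exposure in 96-well plates, responses at five concentrations were used to interpolate endpoints linearly. TGI denotes the concentration required for complete inhibition of growth.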
# What was measured:
# Test in all cases: growth of human tumour cells (NCI), 48 h
# [1] = tested on: CCRF-CEM leukemia
# [2] = tested on: SR leukemia
# [3] = tested on: XF 498 CNS
# [4] = tested on: NCI-H23 lung
# [5] = tested on: DLD-1 colon
# [6] = tested on: M19-MEL melanoma
# [7] = tested on: A549 NSCLC
# [8] = tested on: RXF-631 renal
# [9] = tested on: MOLT-4 leukemia
# [10] = tested on: SF-539 CNS
# [11] = tested on: LXFL 529 NSCLC
# [12] = tested on: HCT-15 colon
# [13] = tested on: U251 CNS
# [14] = tested on: OVCAR-3 ovarian
# [15] = tested on: HL-60(TB) leukemia
# [16] = tested on: LOX IMVI melanoma
# [17] = tested on: NCI-H460 lung
# [18] = tested on: HCT-116 colon
# [19] = tested on: SK-MEL-5 melanoma
# [20] = tested on: RXF 393 renal
# [21] = tested on: SK-OV-3 ovarian
# [22] = tested on: SK-MEL-28 melanoma
# [23] = tested on: KM12 colon
# [24] = tested on: UO-31 renal
# [25] = tested on: MALME-3M melanoma
# [26] = tested on: COLO 205 colon
# [27] = tested on: RPMI-8226 leukemia
# [28] = tested on: SW-620 colon
# [29] = tested on: NCI-H522 lung
# [30] = tested on: KM20L2 colon
# [31] = tested on: UACC-257 melanoma
# [32] = tested on: SF-295 CNS
# [33] = tested on: SNB-75 CNS
# [34] = tested on: 786-0 renal
# [35] = tested on: HCC-2998 colon
# [36] = tested on: OVCAR-4 ovarian
# [37] = tested on: TK-10 renal
# [38] = tested on: EKVX NSCLC
# [39] = tested on: SNB-78 CNS
# [40] = tested on: K-562 leukemia
# [41] = tested on: M14 melanoma
# [42] = tested on: DMS 114 small cell lung
# [43] = tested on: UACC-62 melanoma
# [44] = tested on: HOP-62 NSCLC
# [45] = tested on: IGROV1 ovarian
# [46] = tested on: OVCAR-5 ovarian
# [47] = tested on: ACHN renal
# [48] = tested on: SK-MEL-2 melanoma
# [49] = tested on: OVCAR-8 ovarian
# [50] = tested on: CAKI-1 renal
# [51] = tested on: HOP-18 NSCLC
# [52] = tested on: DMS 273 small cell lung
# [53] = tested on: HOP-92 NSCLC
# [54] = tested on: NCI-H226 lung
# [55] = tested on: SN12C renal
# [56] = tested on: HT29 colon
# [57] = tested on: SNB-19 CNS
# [58] = tested on: SF-268 CNS
# [59] = tested on: A498 renal
structure (smiles),measurement,setting,value
CC(=O)c1cc2c3c(c1)c1cc4c(cc1c(=O)n3CC2)OCO4,TGI,[1],> 100 µM
same,TGI,[2],34.9 µM
same,TGI,[3],> 100 µM
same,TGI,[4],> 100 µM
same,TGI,[5],> 100 µM
same,TGI,[6],> 100 µM
same,TGI,[7],> 100 µM
same,TGI,[8],> 100 µM
same,TGI,[9],9.92 µM
same,TGI,[10],> 100 µM
same,TGI,[11],> 100 µM
same,TGI,[12],> 100 µM
same,TGI,[13],> 100 µM
same,TGI,[14],> 100 µM
same,TGI,[15],> 100 µM
same,TGI,[16],> 100 µM
same,TGI,[17],49.7 µM
same,TGI,[18],26.6 µM
same,TGI,[19],> 100 µM
same,TGI,[20],> 100 µM
same,TGI,[21],> 100 µM
same,TGI,[22],> 100 µM
same,TGI,[23],> 100 µM
same,TGI,[24],38.6 µM
same,TGI,[25],> 100 µM
same,TGI,[26],> 100 µM
same,TGI,[27],> 100 µM
same,TGI,[28],> 100 µM
same,TGI,[29],34 µM
same,TGI,[30],> 100 µM
same,TGI,[31],> 100 µM
same,TGI,[32],> 100 µM
same,TGI,[33],> 100 µM
same,TGI,[34],> 100 µM
same,TGI,[35],> 100 µM
same,TGI,[36],> 100 µM
same,TGI,[37],> 100 µM
same,TGI,[38],> 100 µM
same,TGI,[39],> 100 µM
same,TGI,[40],> 100 µM
same,TGI,[41],> 100 µM
same,TGI,[42],> 100 µM
same,TGI,[43],53.9 µM
same,TGI,[44],> 100 µM
same,TGI,[45],> 100 µM
same,TGI,[46],> 100 µM
same,TGI,[47],> 100 µM
same,TGI,[48],> 100 µM
same,TGI,[49],> 100 µM
same,TGI,[50],91.3 µM
same,TGI,[51],76.6 µM
same,TGI,[52],> 100 µM
same,TGI,[53],> 100 µM
same,TGI,[54],> 100 µM
same,TGI,[55],> 100 µM
same,TGI,[56],> 100 µM
same,TGI,[57],> 100 µM
COC(=O)C(CCC1(C)OCCO1)C(C)=O (configuration not stated),TGI,[1],> 100 µM
same,TGI,[2],> 100 µM
same,TGI,[3],> 100 µM
same,TGI,[4],> 100 µM
same,TGI,[5],> 100 µM
same,TGI,[6],> 100 µM
same,TGI,[7],> 100 µM
same,TGI,[8],> 100 µM
same,TGI,[9],> 100 µM
same,TGI,[10],> 100 µM
same,TGI,[11],> 100 µM
same,TGI,[12],> 100 µM
same,TGI,[13],> 100 µM
same,TGI,[14],> 100 µM
same,TGI,[15],> 100 µM
same,TGI,[16],> 100 µM
same,TGI,[17],> 100 µM
same,TGI,[18],> 100 µM
same,TGI,[19],> 100 µM
same,TGI,[20],> 100 µM
same,TGI,[21],> 100 µM
same,TGI,[22],> 100 µM
same,TGI,[23],> 100 µM
same,TGI,[24],> 100 µM
same,TGI,[25],> 100 µM
same,TGI,[26],> 100 µM
same,TGI,[28],> 100 µM
same,TGI,[29],> 100 µM
same,TGI,[30],> 100 µM
same,TGI,[31],> 100 µM
same,TGI,[58],> 100 µM
same,TGI,[32],> 100 µM
same,TGI,[33],> 100 µM
same,TGI,[34],> 100 µM
same,TGI,[35],> 100 µM
same,TGI,[36],> 100 µM
same,TGI,[37],> 100 µM
same,TGI,[38],> 100 µM
same,TGI,[39],> 100 µM
same,TGI,[40],> 100 µM
same,TGI,[41],> 100 µM
same,TGI,[42],> 100 µM
same,TGI,[59],> 100 µM
same,TGI,[44],> 100 µM
same,TGI,[45],> 100 µM
same,TGI,[46],> 100 µM
same,TGI,[47],> 100 µM
same,TGI,[48],> 100 µM
same,TGI,[49],> 100 µM
same,TGI,[51],> 100 µM
same,TGI,[52],> 100 µM
same,TGI,[54],> 100 µM
same,TGI,[55],> 100 µM
same,TGI,[56],> 100 µM
same,TGI,[57],> 100 µM
